Results taken from US11566002B2, “Substituted tetrahydrocyclopenta[C]pyrroles, substituted dihydropyrrolizines, analogues thereof, and methods using same” (priority 2018, dated 2023).
Where two headings read alike, the source gives them in different places.

System: HBV rcDNA
Experiment: HepDE19 assay with bDNA quantitation of HBV rcDNA
Assay type: cell-based, hepatitis B virus
In short: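 Cytotoxicity (CC50) measured by CellTiter-Glo ATP content in parallel plates, 5,000 cells/well, 4 days. Antiviral EC50 and EC90 derived from HBV rcDNA bDNA levels after 7-day compound exposure (top 25 μM, ½-log 8-point, 0.5% DMSO) of Tet-withdrawn HepDE19 cells at 50,000/well, as % inhibition versus untreated.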

[1] = Hepatitis B virus, HepDE19, 168 h, HepDE19 cells, Tet-free medium, 7 day-incubation, rcDNA measured by Quantigene 2.0 bDNA assay, top concentration 25 μM; read-out: DE-19 bDNA EC50
[2] = HepDE19 cells, Tet-free medium, 7 day-incubation, rcDNA measured by Quantigene 2.0 bDNA assay, top concentration 25 μM; read-out: DE-19 bDNA EC50

Compound	EC50 [2] [nM]	other results
Cn1cnc(COC(=O)NC2CCc3c2cn(C)c3C(=O)Nc2ccnc(C(F)F)c2)n1 (single isomer, unassigned) [Compound 81, (1-methyl-1H-1,2,4-triazol-3-yl)methyl (1-((2-(difluoromethyl)pyridin-4-yl)carbamoyl)-2-methyl-2,4,5,6-tetrahydrocyclopenta[c]pyrrol-4-yl)carbamate]		EC50 [1]: 600 nM
Cc1c2c(c(C(=O)Nc3ccc(F)c(Cl)c3)n1C)CCC2NC(=O)OCc1ncn(C)n1 (single isomer, unassigned) [Compound 82, (1-Methyl-1H-1,2,4-triazol-3-yl)methyl (1-((3-chloro-4-fluorophenyl)carbamoyl)-2,3-dimethyl-2,4,5,6-tetrahydrocyclopenta[c]pyrrol-4-yl)carbamate]	110	
Cc1c2c(c(C(=O)Nc3ccc(F)c(Cl)c3)n1C)CCC2NC(=O)OCc1ncn(C)n1 (single isomer, unassigned) [Compound 83, (1-Methyl-1H-1,2,4-triazol-3-yl)methyl (1-((3-chloro-4-fluorophenyl)carbamoyl)-2,3-dimethyl-2,4,5,6-tetrahydrocyclopenta[c]pyrrol-4-yl)carbamate]	3300	
Cn1cnc(CNC(=O)NC2CCCc3c2cn(C)c3C(=O)Nc2ccc(F)c(Cl)c2)n1 (single isomer, unassigned) [Compound 84, N-(3-Chloro-4-fluorophenyl)-2-methyl-4-(3-((1-methyl-1H-1,2,4-triazol-3-yl)methyl)ureido)-4,5,6,7-tetrahydro-2H-isoindole-1-carboxamide]		EC50 [1]: 340 nM
COC(=O)NC1CCCCc2c1cn(C)c2C(=O)Nc1ccc(F)c(Cl)c1 (single isomer, unassigned) [Compound 85, Methyl (1-((3-chloro-4-fluorophenyl)carbamoyl)-2-methyl-2,4,5,6,7,8-hexahydrocyclohepta[c]pyrrol-4-yl)carbamate]		EC50 (read-out: DE-19 bDNA EC50; HepDE19 cells, Tet-free medium, 7 day-incubation, rcDNA measured by Quantigene 2.0 bDNA assay, top concentration 25 μM): 1500 nM
Cn1cnc(COC(=O)NC2CCCCc3c2cn(C)c3C(=O)Nc2ccc(F)c(Cl)c2)n1 (single isomer, unassigned) [Compound 86, (1-Methyl-1H-1,2,4-triazol-3-yl)methyl (1-((3-chloro-4-fluorophenyl)carbamoyl)-2-methyl-2,4,5,6,7,8-hexahydrocyclohepta[c]pyrrol-4-yl)carbamate]	160	
Cn1cc2c(c1C(=O)Nc1ccc(F)c(Cl)c1)CCCC2NC(=O)OCc1nc[nH]n1 (single isomer, unassigned) [Compound 88, (1H-1,2,4-Triazol-3-yl)methyl (1-((3-chloro-4-fluorophenyl)carbamoyl)-2-methyl-4,5,6,7-tetrahydro-2H-isoindol-4-yl)carbamate]		EC50 [1]: 510 nM
Cn1cnc(COC(=O)NC2CCCCc3c2cn(C)c3C(=O)Nc2ccc(F)c(Cl)c2)n1 (single isomer, unassigned) [Compound 89, (1-Methyl-1H-1,2,4-triazol-3-yl)methyl (1-((3-chloro-4-fluorophenyl)carbamoyl)-2-methyl-2,4,5,6,7,8-hexahydrocyclohepta[c]pyrrol-4-yl)carbamate]	2900	
Cn1cnc(COC(=O)NC2CCc3c2c(C2CC2)n(C)c3C(=O)Nc2ccc(F)c(Cl)c2)n1 (single isomer, unassigned) [Compound 90, (1-Methyl-1H-1,2,4-triazol-3-yl)methyl (1-((3-chloro-4-fluorophenyl)carbamoyl)-3-cyclopropyl-2-methyl-2,4,5,6-tetrahydrocyclopenta[c]pyrrol-4-yl)carbamate]	420	
Cn1cnc(COC(=O)NC2CCc3c2c(C2CC2)n(C)c3C(=O)Nc2ccc(F)c(Cl)c2)n1 (single isomer, unassigned) [Compound 91, (1-Methyl-1H-1,2,4-triazol-3-yl)methyl (1-((3-chloro-4-fluorophenyl)carbamoyl)-3-cyclopropyl-2-methyl-2,4,5,6-tetrahydrocyclopenta[c]pyrrol-4-yl)carbamate]	22000	
Cc1c2c(c(C(=O)Nc3ccc(F)c(Cl)c3)n1C)CCCC2NC(=O)OCc1ncn(C)n1 (single isomer, unassigned) [Compound 92, (1-Methyl-1H-1,2,4-triazol-3-yl)methyl (1-((3-chloro-4-fluorophenyl)carbamoyl)-2,3-dimethyl-4,5,6,7-tetrahydro-2H-isoindol-4-yl)carbamate]		EC50 [1]: 530 nM
Cc1c2c(c(C(=O)Nc3ccc(F)c(Cl)c3)n1C)CCCC2NC(=O)OCc1ncn(C)n1 (single isomer, unassigned) [Compound 93, (1-Methyl-1H-1,2,4-triazol-3-yl)methyl (1-((3-chloro-4-fluorophenyl)carbamoyl)-2,3-dimethyl-4,5,6,7-tetrahydro-2H-isoindol-4-yl)carbamate]	950	
Cn1cnc(COC(=O)NC2CCCc3c2c(Cl)n(C)c3C(=O)Nc2ccc(F)c(Cl)c2)n1 (single isomer, unassigned) [Compound 94, (1-Methyl-1H-1,2,4-triazol-3-yl)methyl (3-chloro-1-((3-chloro-4-fluorophenyl)carbamoyl)-2-methyl-4,5,6,7-tetrahydro-2H-isoindol-4-yl)carbamate]		EC50 [1]: 440 nM
Cn1cnc(COC(=O)NC2CCc3c2c(C2CCC2)n(C)c3C(=O)Nc2ccc(F)c(Cl)c2)n1 (single isomer, unassigned) [Compound 96, (1-Methyl-1H-1,2,4-triazol-3-yl)methyl (1-((3-chloro-4-fluorophenyl)carbamoyl)-3-cyclobutyl-2-methyl-2,4,5,6-tetrahydrocyclopenta[c]pyrrol-4-yl)carbamate]	420	
Cn1cnc(COC(=O)NC2CCc3c2c(C2CCC2)n(C)c3C(=O)Nc2ccc(F)c(Cl)c2)n1 (single isomer, unassigned) [Compound 97, (1-Methyl-1H-1,2,4-triazol-3-yl)methyl (1-((3-chloro-4-fluorophenyl)carbamoyl)-3-cyclobutyl-2-methyl-2,4,5,6-tetrahydrocyclopenta[c]pyrrol-4-yl)carbamate]	≥ 25000	
Cn1c(C(=O)Nc2ccc(F)c(Cl)c2)c2c(c1C1CC1)C(NC(=O)OCc1nc[nH]n1)CC2 (single isomer, unassigned) [Compound 98, (1H-1,2,4-Triazol-3-yl)methyl (1-((3-chloro-4-fluorophenyl)carbamoyl)-3-cyclopropyl-2-methyl-2,4,5,6-tetrahydrocyclopenta[c]pyrrol-4-yl)carbamate]	15000	
Cn1c(C(=O)Nc2ccc(F)c(Cl)c2)c2c(c1C1CC1)C(NC(=O)OCc1nc[nH]n1)CC2 (single isomer, unassigned) [Compound 99, (1H-1,2,4-Triazol-3-yl)methyl (1-((3-chloro-4-fluorophenyl)carbamoyl)-3-cyclopropyl-2-methyl-2,4,5,6-tetrahydrocyclopenta[c]pyrrol-4-yl)carbamate]	330	
C#CCOC(=O)NC1CCc2c1cn(C)c2C(=O)Nc1ccc(F)c(Cl)c1 (single isomer, unassigned) [Compound 101, Prop-2-yn-1-yl (1-((3-chloro-4-fluorophenyl)carbamoyl)-2-methyl-2,4,5,6-tetrahydrocyclopenta[c]pyrrol-4-yl)carbamate]	1600	
C#CCOC(=O)NC1CCc2c1cn(C)c2C(=O)Nc1ccc(F)c(Cl)c1 (single isomer, unassigned) [Compound 102, Prop-2-yn-1-yl (1-((3-chloro-4-fluorophenyl)carbamoyl)-2-methyl-2,4,5,6-tetrahydrocyclopenta[c]pyrrol-4-yl)carbamate]	20	
